According to ChEMBL document CHEMBL1201862, “PubChem BioAssay data set” (2004):
Active and inactive are the calls of the source.

Legend:
[1] = inhibitors of intracellular T. cruzi replication, confirmation, NIH3T3 host cells, beta-gal luminescence (AID 2044); type: functional, cell-based;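 note: intracellular parasites grown in NIH/3T3 mouse fibroblasts as host cells; luminescent beta-galactosidase reporter signal from transgenic T. cruzi replicating inside host cells; inhibitors lower the luminescence signal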
NADPH oxidase 1 [2] = target: T1, NADPH oxidase 1 (Homo sapiens, UniProt Q9Y5S8); type: functional, cell-based
T1 sequence (Q9Y5S8 whole entry): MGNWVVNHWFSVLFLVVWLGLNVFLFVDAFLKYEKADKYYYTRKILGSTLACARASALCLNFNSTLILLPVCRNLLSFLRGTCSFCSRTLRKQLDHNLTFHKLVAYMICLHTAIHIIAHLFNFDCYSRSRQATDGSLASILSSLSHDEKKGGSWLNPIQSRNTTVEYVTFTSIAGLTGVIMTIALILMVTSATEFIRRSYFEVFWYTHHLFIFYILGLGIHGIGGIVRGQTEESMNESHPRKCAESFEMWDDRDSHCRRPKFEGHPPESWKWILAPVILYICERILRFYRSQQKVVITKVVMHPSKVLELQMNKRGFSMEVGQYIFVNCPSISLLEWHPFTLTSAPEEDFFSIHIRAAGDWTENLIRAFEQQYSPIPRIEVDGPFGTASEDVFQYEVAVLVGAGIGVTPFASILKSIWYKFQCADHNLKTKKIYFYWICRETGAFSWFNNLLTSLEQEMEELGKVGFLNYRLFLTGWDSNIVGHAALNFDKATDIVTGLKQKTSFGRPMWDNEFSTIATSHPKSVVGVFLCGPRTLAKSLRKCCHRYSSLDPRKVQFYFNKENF

NADPH oxidase 1 [3] = target: T1, NADPH oxidase 1; assay: Luminescence-based cell-based dose response assay to identify inhibitors of NADPH oxidase 1 (NOX1).; type: functional
[4] = cytotoxicity toward NIH3T3 fibroblasts, dose response, counter-screen, cell-based, ATP luminescence, mouse fibroblasts (AID 2010); type: functional;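 note: cells exposed to compound for about 90 hours before reading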
[5] = target: T2, Rac GTPase-activating protein 1 (Homo sapiens, UniProt Q9H0H5); assay: MgcRacGAP GTPase-activating activity inhibitors, confirmation, biochemical, ADP Hunter fluorescence, primary and confirmatory (AID 624330); type: functional
T2 sequence (Q9H0H5 whole entry): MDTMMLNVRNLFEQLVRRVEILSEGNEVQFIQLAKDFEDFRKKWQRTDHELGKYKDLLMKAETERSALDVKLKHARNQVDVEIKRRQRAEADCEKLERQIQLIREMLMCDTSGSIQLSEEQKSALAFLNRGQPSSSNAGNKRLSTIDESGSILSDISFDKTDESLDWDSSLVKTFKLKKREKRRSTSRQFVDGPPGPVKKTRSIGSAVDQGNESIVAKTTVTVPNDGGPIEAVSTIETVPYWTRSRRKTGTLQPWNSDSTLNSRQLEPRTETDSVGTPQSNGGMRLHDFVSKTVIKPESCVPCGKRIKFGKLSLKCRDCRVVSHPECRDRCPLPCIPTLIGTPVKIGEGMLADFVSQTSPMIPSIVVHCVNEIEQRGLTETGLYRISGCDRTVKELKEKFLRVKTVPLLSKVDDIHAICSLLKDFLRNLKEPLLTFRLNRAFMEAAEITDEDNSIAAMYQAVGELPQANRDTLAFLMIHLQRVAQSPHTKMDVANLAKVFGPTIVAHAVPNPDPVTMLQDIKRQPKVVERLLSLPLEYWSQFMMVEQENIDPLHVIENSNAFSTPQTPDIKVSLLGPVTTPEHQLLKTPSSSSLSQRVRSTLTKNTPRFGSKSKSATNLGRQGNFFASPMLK

[6] = target: Neuropeptide Y receptor type 1 (Homo sapiens, UniProt P25929); type: functional;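 note: HEK293 cells with a CNG channel challenged with NPY then isoproterenol; potency as antagonist that reverses NPY suppression of cAMP signal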
Neuropeptide Y receptor type 1, sequence (P25929 whole entry): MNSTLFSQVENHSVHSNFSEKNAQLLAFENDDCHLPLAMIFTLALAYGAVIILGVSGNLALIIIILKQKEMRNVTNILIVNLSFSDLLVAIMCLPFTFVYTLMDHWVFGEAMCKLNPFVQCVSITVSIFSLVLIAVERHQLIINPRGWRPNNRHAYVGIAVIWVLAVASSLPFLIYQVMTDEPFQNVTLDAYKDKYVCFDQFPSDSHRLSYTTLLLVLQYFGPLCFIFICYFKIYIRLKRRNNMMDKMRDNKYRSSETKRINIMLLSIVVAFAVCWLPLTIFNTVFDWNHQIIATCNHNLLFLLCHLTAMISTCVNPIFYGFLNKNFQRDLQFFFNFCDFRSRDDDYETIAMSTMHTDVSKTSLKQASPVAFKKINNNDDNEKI

[7] = target: Neuropeptide Y receptor type 2 (Homo sapiens, UniProt P49146); type: functional, cell-based;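 note: HEK293 cells expressing the receptor and a CNG channel; stimulus was NPY near EC95 followed by isoproterenol to raise cAMP; antagonist potency measured as restoring cAMP signal that NPY suppresses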
[8] = target: T3, RNA-binding protein pos-1 (Caenorhabditis elegans, UniProt G5EF15); assay: inhibitors of POS-1/mex-3 RNA binding, dose response, biochemical, fluorescence polarization (AID 1964);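 note: purified POS-1 fused to maltose binding protein made in E. coli; potency of compounds blocking POS-1 binding to fluorescent RNA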
T3 sequence (G5EF15 whole entry): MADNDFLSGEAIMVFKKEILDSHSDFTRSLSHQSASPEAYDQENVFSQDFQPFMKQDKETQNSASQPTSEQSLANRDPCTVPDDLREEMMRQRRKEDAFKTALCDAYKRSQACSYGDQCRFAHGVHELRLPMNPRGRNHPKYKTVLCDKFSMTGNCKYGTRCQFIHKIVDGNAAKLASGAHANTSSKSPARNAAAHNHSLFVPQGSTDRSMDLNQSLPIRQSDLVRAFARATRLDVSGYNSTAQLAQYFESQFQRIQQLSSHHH

[9] = target: T4, Zinc finger protein mex-5 (Caenorhabditis elegans, UniProt Q9XUB2); assay: MEX-5/TCR-2 RNA interaction inhibitors, dose response, biochemical, C. elegans, fluorescence polarization (AID 1960)
T4 sequence (Q9XUB2 whole entry): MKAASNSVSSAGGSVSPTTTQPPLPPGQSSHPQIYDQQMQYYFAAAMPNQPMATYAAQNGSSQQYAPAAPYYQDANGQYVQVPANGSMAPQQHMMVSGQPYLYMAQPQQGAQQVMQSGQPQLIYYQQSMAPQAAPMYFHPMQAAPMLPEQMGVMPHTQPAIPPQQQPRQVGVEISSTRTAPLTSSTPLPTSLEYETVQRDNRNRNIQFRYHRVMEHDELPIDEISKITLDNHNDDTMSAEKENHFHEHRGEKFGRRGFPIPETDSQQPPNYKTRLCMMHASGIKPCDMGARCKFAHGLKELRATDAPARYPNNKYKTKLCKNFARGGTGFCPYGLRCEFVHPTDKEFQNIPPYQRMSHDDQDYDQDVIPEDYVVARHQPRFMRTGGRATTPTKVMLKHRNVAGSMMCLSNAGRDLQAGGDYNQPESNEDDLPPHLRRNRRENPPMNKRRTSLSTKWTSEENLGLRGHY

NS3 = NS3 (Hepatitis C virus, UniProt A3EZJ3); assay: PubChem AID 2173; parameters: species or system Hepacivirus hominis
SUMO-activating enzyme = SUMO-activating enzyme (Homo sapiens, UniProt Q9UBT2); assay: SUMOylation inhibitor hit validation, confirmation, SUMOylation inhibitor project, biochemical, AlphaScreen (AID 2018); type: functional
SUMO-activating enzyme, sequence (Q9UBE0 whole entry): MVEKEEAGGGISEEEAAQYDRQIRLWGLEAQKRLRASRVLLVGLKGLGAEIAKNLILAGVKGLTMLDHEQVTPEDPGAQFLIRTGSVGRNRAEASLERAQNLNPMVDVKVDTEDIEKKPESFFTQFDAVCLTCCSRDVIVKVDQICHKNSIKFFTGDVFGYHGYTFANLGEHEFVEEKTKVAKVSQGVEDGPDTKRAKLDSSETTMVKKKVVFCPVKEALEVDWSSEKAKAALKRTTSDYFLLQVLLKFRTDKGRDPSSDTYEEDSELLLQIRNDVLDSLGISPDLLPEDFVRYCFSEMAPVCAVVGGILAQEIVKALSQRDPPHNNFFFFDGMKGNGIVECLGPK
SUMO-activating enzyme, sequence (Q9UBT2 whole entry): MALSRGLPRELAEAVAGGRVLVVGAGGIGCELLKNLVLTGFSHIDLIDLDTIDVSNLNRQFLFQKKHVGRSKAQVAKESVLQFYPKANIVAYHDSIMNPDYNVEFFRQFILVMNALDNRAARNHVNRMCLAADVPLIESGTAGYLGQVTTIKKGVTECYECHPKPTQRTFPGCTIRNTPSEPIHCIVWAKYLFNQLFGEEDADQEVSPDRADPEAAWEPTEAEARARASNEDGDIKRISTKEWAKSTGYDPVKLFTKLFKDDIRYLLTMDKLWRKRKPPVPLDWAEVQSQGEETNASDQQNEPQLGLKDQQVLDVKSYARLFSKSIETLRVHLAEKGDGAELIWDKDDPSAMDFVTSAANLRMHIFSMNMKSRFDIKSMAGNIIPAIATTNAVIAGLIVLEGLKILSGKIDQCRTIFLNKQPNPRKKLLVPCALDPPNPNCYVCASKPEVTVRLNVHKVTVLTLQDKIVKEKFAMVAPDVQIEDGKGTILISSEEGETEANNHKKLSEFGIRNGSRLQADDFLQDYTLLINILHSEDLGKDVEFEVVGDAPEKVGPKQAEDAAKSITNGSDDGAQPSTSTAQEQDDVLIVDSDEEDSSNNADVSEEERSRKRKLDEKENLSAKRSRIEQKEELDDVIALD

[10] = target: ATP-sensitive inward rectifier potassium channel 1 (Homo sapiens, UniProt P48048); assay: ROMK inhibition by analog compounds, SAR follow-up, cell-based, thallium flux, analog library (AID 435017); type: functional
Estrogen receptor = target: T5, Estrogen receptor (Homo sapiens, UniProt P03372); assay: ERα–SRC-3 coactivator interaction inhibitors, confirmation, orthogonal assay, biochemical, ELISA, streptavidin-HRP readout (AID 1079)
T5 sequence (P03372 whole entry): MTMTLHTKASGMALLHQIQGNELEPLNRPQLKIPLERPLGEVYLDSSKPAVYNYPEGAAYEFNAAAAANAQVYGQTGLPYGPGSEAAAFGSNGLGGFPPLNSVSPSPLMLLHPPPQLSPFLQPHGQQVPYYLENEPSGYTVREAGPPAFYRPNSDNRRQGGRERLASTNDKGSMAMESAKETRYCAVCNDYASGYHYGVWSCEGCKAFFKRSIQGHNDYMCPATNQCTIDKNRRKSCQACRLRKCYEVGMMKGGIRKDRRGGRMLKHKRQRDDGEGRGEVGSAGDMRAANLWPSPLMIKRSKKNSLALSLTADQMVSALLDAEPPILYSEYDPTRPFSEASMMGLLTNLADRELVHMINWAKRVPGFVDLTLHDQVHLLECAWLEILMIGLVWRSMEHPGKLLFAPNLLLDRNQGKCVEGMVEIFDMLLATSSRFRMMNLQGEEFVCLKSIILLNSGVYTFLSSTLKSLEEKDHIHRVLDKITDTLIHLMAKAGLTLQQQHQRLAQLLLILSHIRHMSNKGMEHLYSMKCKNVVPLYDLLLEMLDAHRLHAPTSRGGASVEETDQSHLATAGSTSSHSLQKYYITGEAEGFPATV

[11] = target: 5-hydroxytryptamine receptor 1E (Homo sapiens, UniProt P28566); assay: Counterscreen assay for S1P3 antagonists: Dose response cell-based high throughput screening assay to identify antagonists of the 5-Hydroxytryptamine Receptor Subtype 1E (5HT1E). [Related pubchem assays: 1429, 485 ]; type: functional
[12] = target: Sphingosine 1-phosphate receptor 3 (Homo sapiens, UniProt Q99500); assay: Dose response cell-based high throughput screening assay for antagonists of the Sphingosine 1-Phosphate Receptor 3 (S1P3). [Related pubchem assays: 1429, 485 ]; type: functional
Sphingosine 1-phosphate receptor 3, sequence (Q99500 whole entry, the tested form may be a part): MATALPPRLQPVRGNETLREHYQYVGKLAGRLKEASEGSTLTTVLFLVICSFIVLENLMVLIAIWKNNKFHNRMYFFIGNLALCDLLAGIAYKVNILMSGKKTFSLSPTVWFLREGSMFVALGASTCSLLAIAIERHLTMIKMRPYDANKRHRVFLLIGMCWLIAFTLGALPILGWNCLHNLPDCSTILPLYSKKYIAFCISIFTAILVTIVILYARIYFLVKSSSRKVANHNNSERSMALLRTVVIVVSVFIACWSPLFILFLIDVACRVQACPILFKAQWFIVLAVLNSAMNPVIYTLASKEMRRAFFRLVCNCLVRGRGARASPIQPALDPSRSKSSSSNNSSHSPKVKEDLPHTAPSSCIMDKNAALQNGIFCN

[13] = target: Disintegrin and metalloproteinase domain-containing protein 17 (Homo sapiens, UniProt P78536); assay: exosite inhibitors of ADAM17, dose response, biochemical (AID 743260)
[14] = ADAM10 protease inhibitors, dose response, selectivity assay for ADAM17 exosite inhibitor project, biochemical, FRET peptide substrate, recombinant human ADAM10 (AID 743259);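 note: ADAM10 enzyme cleaving a FRET peptide substrate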
[15] = target: Luciferin 4-monooxygenase (Photinus pyralis, UniProt P08659); assay: Counter Screen for Luciferase-based Assay Positives. [Related pubchem assays: 620, 618, 411 ]
HT-1080 = assay: cytotoxicity in HT1080 fibrosarcoma cells, cell-based, fluorescence readout (AID 620); type: functional; conditions: Homo sapiens
Cytochrome P450 2D6 = Cytochrome P450 2D6 (Homo sapiens, UniProt P10635);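 note: CYP2D6 member of a cytochrome P450 panel assay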
Cytochrome P450 2C9 = Cytochrome P450 2C9 (Homo sapiens, UniProt P11712)
Cytochrome P450 2C9, sequence (P11712 whole entry): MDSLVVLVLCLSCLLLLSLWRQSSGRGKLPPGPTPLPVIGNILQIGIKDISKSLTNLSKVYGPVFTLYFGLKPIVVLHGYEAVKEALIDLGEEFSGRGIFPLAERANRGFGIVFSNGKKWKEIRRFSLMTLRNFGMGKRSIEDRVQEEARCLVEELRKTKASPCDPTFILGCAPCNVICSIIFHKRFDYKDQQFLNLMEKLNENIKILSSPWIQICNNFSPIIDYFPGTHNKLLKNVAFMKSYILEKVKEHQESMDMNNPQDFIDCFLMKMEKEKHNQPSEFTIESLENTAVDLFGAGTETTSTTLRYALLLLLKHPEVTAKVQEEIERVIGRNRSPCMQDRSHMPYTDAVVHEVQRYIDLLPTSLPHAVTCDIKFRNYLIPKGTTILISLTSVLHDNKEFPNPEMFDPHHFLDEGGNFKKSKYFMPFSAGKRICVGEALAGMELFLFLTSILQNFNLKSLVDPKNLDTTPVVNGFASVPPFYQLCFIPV

Mucolipin-3 = Mucolipin-3 (Homo sapiens, UniProt Q8TDD5); assay: Dose response cell-based high-throughput screening assay for agonists of the transient receptor potential channel ML3 (TRPML3). [Related pubchem assays: 1526, 1424, 1448 ]; type: functional
Ion channel NompC = Ion channel NompC (Danio rerio, UniProt Q7T1G6); assay: Fluorescence counterscreen assay for TRPML3 agonists: dose response cell-based high-throughput screening assay to identify agonists of the transient receptor potential channel N1 (TRPN1). [Related pubchem assays: 1526, 1424, 1448 ]; type: functional
Ion channel NompC, sequence (Q7T1G6 whole entry): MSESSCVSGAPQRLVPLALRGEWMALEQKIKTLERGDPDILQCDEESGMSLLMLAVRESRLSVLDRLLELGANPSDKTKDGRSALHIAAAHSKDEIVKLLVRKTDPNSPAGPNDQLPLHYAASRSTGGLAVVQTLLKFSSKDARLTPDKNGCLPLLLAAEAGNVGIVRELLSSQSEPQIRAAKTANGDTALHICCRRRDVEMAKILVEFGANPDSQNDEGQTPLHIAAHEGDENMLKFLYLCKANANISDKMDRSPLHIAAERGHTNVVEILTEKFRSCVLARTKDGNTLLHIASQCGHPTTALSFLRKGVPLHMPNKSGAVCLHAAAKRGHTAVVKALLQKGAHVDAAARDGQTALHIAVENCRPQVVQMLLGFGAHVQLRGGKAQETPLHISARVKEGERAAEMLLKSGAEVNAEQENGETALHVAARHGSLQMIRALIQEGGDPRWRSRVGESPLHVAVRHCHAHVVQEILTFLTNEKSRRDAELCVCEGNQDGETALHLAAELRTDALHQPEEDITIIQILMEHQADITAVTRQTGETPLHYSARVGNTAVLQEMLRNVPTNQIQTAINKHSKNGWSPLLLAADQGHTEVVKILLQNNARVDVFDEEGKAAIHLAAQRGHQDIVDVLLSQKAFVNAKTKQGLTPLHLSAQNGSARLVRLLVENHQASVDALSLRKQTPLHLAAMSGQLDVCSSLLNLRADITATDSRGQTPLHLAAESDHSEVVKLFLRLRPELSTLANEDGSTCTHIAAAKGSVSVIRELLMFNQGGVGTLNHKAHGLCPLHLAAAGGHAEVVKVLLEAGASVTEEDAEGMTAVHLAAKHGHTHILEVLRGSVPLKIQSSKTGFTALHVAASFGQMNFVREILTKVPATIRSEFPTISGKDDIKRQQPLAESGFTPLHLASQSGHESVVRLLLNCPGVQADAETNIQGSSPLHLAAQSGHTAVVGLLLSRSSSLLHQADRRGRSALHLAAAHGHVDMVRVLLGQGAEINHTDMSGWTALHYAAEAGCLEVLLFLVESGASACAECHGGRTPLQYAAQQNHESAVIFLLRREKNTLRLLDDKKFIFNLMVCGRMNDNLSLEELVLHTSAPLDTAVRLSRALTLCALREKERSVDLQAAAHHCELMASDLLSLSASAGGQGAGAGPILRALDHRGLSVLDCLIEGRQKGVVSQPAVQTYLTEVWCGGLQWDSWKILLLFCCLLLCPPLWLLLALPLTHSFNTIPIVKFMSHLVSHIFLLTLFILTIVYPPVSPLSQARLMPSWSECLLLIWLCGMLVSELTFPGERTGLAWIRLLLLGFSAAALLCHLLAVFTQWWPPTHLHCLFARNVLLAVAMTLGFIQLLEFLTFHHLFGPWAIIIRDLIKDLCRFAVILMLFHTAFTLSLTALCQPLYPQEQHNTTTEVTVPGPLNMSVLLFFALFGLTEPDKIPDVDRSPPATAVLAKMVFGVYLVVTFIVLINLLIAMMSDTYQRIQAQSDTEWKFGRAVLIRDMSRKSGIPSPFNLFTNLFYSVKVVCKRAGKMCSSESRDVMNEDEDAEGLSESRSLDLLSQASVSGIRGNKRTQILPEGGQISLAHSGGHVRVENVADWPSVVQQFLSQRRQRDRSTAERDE

[16] = target: T6, Long-chain-fatty-acid--AMP ligase FadD28 (Mycobacterium tuberculosis, UniProt P9WQ59); assay: Fluorescence polarization aasay to screen for inhibitors that compete for the binding of FadD28 to a bisubstrate Measured in Biochemical System Using Plate Reader - 2147-01_Inhibitor_Dose_CherryPick_Activity.; type: functional, Mycobacterium tuberculosis H37Rv
T6 sequence (P9WQ59 whole entry): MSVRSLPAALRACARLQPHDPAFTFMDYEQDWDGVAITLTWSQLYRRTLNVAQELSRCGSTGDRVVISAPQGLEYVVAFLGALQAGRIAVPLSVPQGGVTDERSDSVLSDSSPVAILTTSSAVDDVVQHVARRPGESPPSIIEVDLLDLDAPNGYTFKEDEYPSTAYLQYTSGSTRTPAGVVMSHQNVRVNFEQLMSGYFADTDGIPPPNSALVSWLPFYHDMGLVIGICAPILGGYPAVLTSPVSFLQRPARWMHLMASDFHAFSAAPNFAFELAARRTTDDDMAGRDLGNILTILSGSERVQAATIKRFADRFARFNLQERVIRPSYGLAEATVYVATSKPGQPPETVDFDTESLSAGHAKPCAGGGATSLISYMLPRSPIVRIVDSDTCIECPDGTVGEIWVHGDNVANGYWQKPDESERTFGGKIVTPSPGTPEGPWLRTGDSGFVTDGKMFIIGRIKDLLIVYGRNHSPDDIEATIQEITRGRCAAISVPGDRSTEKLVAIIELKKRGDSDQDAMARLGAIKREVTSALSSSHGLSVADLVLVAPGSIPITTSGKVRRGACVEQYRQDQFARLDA

[17] = target: Potassium voltage-gated channel subfamily KQT member 2 (Rattus norvegicus, UniProt O88943); assay: Mode of action assay - current amplitude concentration response for derivatives of ZTZ240, a potentiator of KCNQ2 potassium channels. [Related pubchem assays: 2258 (Summary assay for the KCNQ2 potentiators.), 2239 (Primary HTS assay for KCNQ2 potentiators with 305606 compounds tested, and 1644 are found to be active.)]; type: functional
[18] = HEp-2 cell cytotoxicity, dose response, cytotoxicity control for RSV inhibitor project, HTS (AID 2410); type: functional; conditions: human respiratory syncytial virus
[19] = target: T7, Mannose-6-phosphate isomerase (Homo sapiens, UniProt P34949); assay: inhibitors of human PMI, primary screen, biochemical, fluorescence intensity, coupled assay (AID 1209)
T7 sequence (P34949 whole entry): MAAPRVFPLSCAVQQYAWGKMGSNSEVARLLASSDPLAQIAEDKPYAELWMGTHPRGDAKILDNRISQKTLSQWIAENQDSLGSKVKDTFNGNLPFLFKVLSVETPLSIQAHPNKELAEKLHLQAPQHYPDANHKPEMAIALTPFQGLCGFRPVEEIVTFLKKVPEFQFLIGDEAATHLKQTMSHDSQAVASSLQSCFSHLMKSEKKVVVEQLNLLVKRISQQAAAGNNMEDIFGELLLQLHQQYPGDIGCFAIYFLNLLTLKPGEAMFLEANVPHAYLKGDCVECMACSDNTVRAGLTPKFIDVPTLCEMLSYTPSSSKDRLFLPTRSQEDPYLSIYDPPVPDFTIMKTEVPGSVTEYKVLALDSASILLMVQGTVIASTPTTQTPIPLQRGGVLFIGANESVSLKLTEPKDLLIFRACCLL

[20] = Luminescence-based dose response cell-based high throughput screening assay for cytotoxic compounds using the IEC-6 intestinal epithelial cell line. [Related pubchem assays: 1858 (Summary AID.), 1825 (Counterscreen.), 1907 (Confirmation screen.)]; type: functional
[21] = target: T7, Mannose-6-phosphate isomerase; assay: human PMI inhibitors, high substrate, primary screen, biochemical, fluorescence intensity, high mannose 6-phosphate (AID 1220)
[22] = target: Photoreceptor-specific nuclear receptor (Homo sapiens, UniProt Q9Y5X4); type: functional, cell-based;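 note: CHO-S cells with Gal4-NCOR and VP16-NR2E3 two-hybrid luciferase reporter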
Photoreceptor-specific nuclear receptor, sequence (Q9Y5X4 whole entry, the tested form may be a part): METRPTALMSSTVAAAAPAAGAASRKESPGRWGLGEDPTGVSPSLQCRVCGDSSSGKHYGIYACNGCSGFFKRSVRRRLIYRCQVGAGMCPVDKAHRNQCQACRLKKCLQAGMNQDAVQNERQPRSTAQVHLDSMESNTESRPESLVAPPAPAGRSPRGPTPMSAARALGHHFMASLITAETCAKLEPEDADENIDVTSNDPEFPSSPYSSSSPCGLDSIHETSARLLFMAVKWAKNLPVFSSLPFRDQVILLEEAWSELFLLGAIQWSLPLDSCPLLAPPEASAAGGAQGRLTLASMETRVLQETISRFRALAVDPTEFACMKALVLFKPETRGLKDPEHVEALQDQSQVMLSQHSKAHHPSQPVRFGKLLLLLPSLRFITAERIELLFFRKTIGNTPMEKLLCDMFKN

Compound: CCOC(=O)Nc1ccc2c(c1)Nc1ccccc1S2
- EC50 [1]: < 0.1 µM (active)
- IC50 (NADPH oxidase 1 [2]): 0.915 µM (active)
- IC50 (NADPH oxidase 1 [3]): 0.054 µM (active)
- EC50 [4]: > 60 µM (not active)
- IC50 [5]: 45 µM (active)

Compound: COc1cccc(-c2nc(-c3ccc(NC(=O)Cc4ccccc4OC)cc3)no2)c1
- IC50 [6]: > 35 µM (not active)
- IC50 [7]: 0.733 µM (active)

Compound: COc1cccc(C2C(C#N)=C(N)OC3=C2C(=O)CC(c2ccco2)C3)c1OCc1ccc(F)cc1 (stereo not drawn)
- EC50 [8]: > 300 µM (not active)
- EC50 [9]: > 300 µM (not active)
- IC50 (NS3): 33.5 µM (not active)

Compound: O=[N+]([O-])c1ccc2[nH]c(CCCc3nc4cc([N+](=O)[O-])ccc4[nH]3)nc2c1
- IC50 (SUMO-activating enzyme): > 100 µM (inactive)
- IC50 [10]: 6.53 µM (active)

Compound: O=C(CCCCCn1c(=S)[nH]c2ccccc2c1=O)N1CCN(c2cccc(Cl)c2)CC1
- IC50 (Estrogen receptor): 0.35 µM (not active)

Compound: COc1ccc(C(CC(=O)c2ccc(C)cc2)Nc2ccc([N+](=O)[O-])cc2)cc1 (stereo not drawn)
- IC50 [11]: > 50 µM (not active)
- IC50 [12]: 2.05 µM (active)
- IC50 [13]: > 69.5 µM (inactive)
- IC50 [14]: 26.8 µM (inactive)

Compound: COc1ccc(-c2nsc3c(N4CCCCC4)ncnc23)cc1
- EC50 [15]: 4.6 µM (active)
- EC50 (HT-1080): > 50 µM (not active)
- AC50 (Cytochrome P450 2D6): 15.8 µM (inconclusive)
- AC50 (Cytochrome P450 2C9): 5.01 µM (inconclusive)

Compound: CC1CCCC(C)N1C(=C(Cl)Cl)C(=C1SCCS1)[N+](=O)[O-] (stereo not drawn)
- EC50 (Mucolipin-3): 6.91 µM (active)
- EC50 (Ion channel NompC): > 29.9 µM (not active)
- AC50 [16]: > 100 µM (inactive)

Compound: O=C(Nc1ccc(Br)nc1)c1ccc(F)c(F)c1
- EC50 [17]: 3.72 µM (active)

Compound: Cc1cccc(/C=N/Nc2cc(N3CCOCC3)nc(N3CCOCC3)n2)c1
- CC50 [18]: 24.6 µM (active)
- IC50 [19]: > 50 µM (not active)
- EC50 [1]: < 0.1 µM (active)
- IC50 [20]: 0.692 µM (active)
- EC50 [4]: 1.6 µM (active)
- IC50 [21]: > 50 µM (not active)
- IC50 [22]: 1.88 µM (active)
- EC50 (cells): 0.077 µM (active)
